Target: T1, PAMOI (RIDD-tagged PAMO) (Thermobifida fusca, UniProt Q47PU3)
T1 construct: N-terminal 6xHis, C-terminal (GGGGS)x3 linker and 44-residue RIDD tag, kept; E. coli; 70 kDa; homodimer through the RIDD tag
Assay: UV-Vis absorbance ratio A280/A441 of the purified protein
Type: binding
Conditions: co-purified flavin; ratio given for the tagged PAMO fusions together

T1 sequence (Q47PU3 whole entry): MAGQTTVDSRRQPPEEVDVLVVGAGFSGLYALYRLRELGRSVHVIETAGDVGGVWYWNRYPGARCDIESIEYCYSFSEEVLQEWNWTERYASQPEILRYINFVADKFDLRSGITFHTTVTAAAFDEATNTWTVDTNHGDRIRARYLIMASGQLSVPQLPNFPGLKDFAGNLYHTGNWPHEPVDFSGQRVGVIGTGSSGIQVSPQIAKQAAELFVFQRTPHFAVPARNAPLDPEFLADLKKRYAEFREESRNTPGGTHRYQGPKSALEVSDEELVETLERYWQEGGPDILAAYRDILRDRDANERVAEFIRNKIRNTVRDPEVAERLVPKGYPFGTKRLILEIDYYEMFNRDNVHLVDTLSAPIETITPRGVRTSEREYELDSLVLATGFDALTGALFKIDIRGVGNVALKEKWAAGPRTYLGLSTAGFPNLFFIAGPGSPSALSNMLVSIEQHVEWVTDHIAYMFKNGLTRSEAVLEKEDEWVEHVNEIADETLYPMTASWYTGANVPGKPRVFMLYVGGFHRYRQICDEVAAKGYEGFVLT

## Cc1cc2nc3c(=O)[nH]c(=O)nc-3n(C[C@H](O)[C@H](O)[C@H](O)COP(=O)(O)OP(=O)(O)OC[C@H]3O[C@@H](n4cnc5c(N)ncnc54)[C@H](O)[C@@H]3O)c2cc1C [FAD]
  UV-Vis absorbance ratio A280/A441 of the purified protein: The tagged variants of PAMO were purified as yellow proteins
